Source: patent publication US7935699B2, “Pyrazole glucokinase activators” (Hoffmann-La Roche Inc., priority 2006, dated 2011)

Key:
[1] = biological target: T1, Recombinant human liver GK1 (GST-GK) (Homo sapiens, UniProt P35557); test: Glucokinase in vitro assay (G6PDH-coupled, NADH at OD340); format: biochemical; settings: 25° C., 5 mM D-glucose, 10% DMSO, GST-GK
T1 construct: made in house; host or cells: E. coli
T1 sequence (P35557 1-466 isoform P35557-2): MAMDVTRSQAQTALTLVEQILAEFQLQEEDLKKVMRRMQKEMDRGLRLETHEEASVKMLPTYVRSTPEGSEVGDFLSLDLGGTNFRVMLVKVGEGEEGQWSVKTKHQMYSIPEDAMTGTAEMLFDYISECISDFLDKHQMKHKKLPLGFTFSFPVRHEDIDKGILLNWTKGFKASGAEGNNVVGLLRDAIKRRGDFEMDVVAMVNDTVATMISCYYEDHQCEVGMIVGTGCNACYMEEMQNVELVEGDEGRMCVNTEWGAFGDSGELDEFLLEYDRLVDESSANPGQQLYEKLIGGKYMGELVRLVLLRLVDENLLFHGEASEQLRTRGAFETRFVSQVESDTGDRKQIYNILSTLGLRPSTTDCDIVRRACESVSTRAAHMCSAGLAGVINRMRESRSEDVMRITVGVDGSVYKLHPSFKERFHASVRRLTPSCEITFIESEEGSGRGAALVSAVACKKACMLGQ
Protocol: Glucokinase In Vitro Assay Protocol: Glucokinase (GK) was assayed by coupling the production of glucose-6-phosphate to the generation of NADH with glucose-6-phosphate dehydrogenase (G6PDH, 0.75-1 kunits/mg; Boehringer Mannheim, Indianapolis, Ind.) from Leuconostoc mesenteroides as the coupling enzyme (Scheme 2).
Recombinant human liver GK1 was expressed in E. coli as a glutathione S-transferase fusion protein (GST-GK) [Liang et al, 1995] and was purified by chromatography over a glutathione-Sepharose 4B affinity column using the procedure provided by the manufacturer (Amersham Pharmacia Biotech, Piscataway, N.J.).
The assay was conducted at 25° C. in a flat bottom 96-well tissue culture plate from Costar (Cambridge, Mass.) with a final incubation volume of 120 μL. The incubation reaction contained the following: 25 mM Hepes buffer (pH 7.1), 25 mM KCl, 5 mM D-glucose, 1 mM ATP, 1.8 mM NAD, 2 mM MgCl2, 1 μM sorbitol-6-phosphate, 1 mM dithiothreitol, test drug or 10% DMSO, 1.8 unit/ml G6PDH, and GK (see below). All organic reagents were >98% pure and were from Boehringer Mannheim with the exceptions of D-glucose and Hepes which were from Sigma Chemical Co, St Louis, Mo. Test compounds were dissolved in DMSO and were added to the incubation reaction minus GST-GK in a volume of 12 μL to yield a final DMSO concentration of 10%. This mix was pre-incubated in the temperature controlled chamber of a SPECTRAmax 250 microplate spectrophotometer (Molecular Devices Corporation, Sunnyvale, Calif.) for 10 minutes to allow temperature equilibrium and then the reaction was started by the addition of 20 μL GST-GK.
After addition of enzyme, the increase in optical density (OD) at 340 nm was monitored over a 10 minute incubation period as a measure of GK activity. Sufficient GST-GK was added to produce an increase in OD340 of 0.08 to 0.1 units over the 10 minute incubation period in wells containing 10% DMSO but no test compound. Preliminary experiments established that the GK reaction was linear over this period of time even in the presence of activators that produced a 5-fold increase in GK activity. The GK activity in control wells was compared with the activity in wells containing test GK activators, and the concentration of activator that produced a 50% increase in the activity of GK, i.e., the SC1.5, was calculated.

[2] = system: Diet-Induced Obese (DIO) C57BL/6J mice; test: Glucokinase activator in vivo screen, blood glucose in DIO mice; settings: Mus musculus; 2 hours post 25 mg/kg oral dose in DIO mice, vs control; read-out: % gluc @ 2 H (% glucose lowering vs control)
Protocol: Glucokinase Activator in vivo Screen Protocol in Lean and Diet Induced Obese Mice: Lean or Diet-Induced Obese (DIO) C57BL/6J mice were orally dosed via gavage with Glucokinase (GK) activator (50 mg/kg body weight for lean mice, 25 mg/kg body weight for DIO mice) following a two hour fasting period. Blood glucose determinations were made four times during the six hour post-dose study period.
C57Bl/6J mice were obtained from Jackson Laboratory (Bar Harbor, Me.) and were maintained in a light-dark cycle with lights on from 0600-1800 hr. For studies in lean mice, the mice were received at age six weeks and given ad libitum access to control diet (LabDiet 5001 chow, PMI Nutrition, Brentwood, Mo.), and were at least age 11 weeks at the time of study. For studies in the DIO model, the mice were received at age five weeks and given ad libitum access to Bio-Serv F3282 High Fat Diet (Frenchtown, N.J.), and were at least age 16 weeks at the time of study. The experiments were conducted during the light phase of the light-dark cycle. Mice (n=6) are weighed and fasted for a two hour period prior to oral treatment. GK activators are formulated in Gelucire vehicle (Ethanol:Gelucire44/14:PEG400q.s. 4:66:30 v/w/v. For studies in lean mice, the mice were dosed orally with 5.0 μL per gram of body weight with 5 ml/kg×10.0 mg/ml formulation to equal a 50 mg/kg dose. For studies in DIO mice, the mice were dosed orally with 5.0 μL per gram of body weight with […] formulation to equal a 25 mg/kg dose. Immediately prior to dosing, a pre-dose (time zero) blood glucose reading was acquired by snipping off a small portion of the animal's tail (˜1 mm) and collecting 15 μL blood into a heparinized capillary tube for analysis. Following GK activator administration, additional blood glucose readings were taken at 2, 4 and 6 hours post dose from the same tail wound. Results were interpreted by comparing the mean blood glucose values of six vehicle treated mice with six GK activator treated mice over the six hour study duration.

- SC1.5 (concentration of activator that produced a 50% increase in the activity of GK) [1]: 0.779 µM
SMILES: O=C(Nc1ccn(CCCO)n1)[C@H](CC1CCCC1)c1cccc(C(F)(F)F)c1 [Example 85, 3-Cyclopentyl-N-[1-(3-hydroxy-propyl)-1H-pyrazol-3-yl]-2(R)-(3-trifluoromethyl-phenyl)-propionamide]
- change in vivo at 25 mg/kg [2]: -20.5%
